According to patent US3982931A, “N,N-di-sec.butyl-benzamide herbicides” (priority 1967, dated 1976):
Blank lines part the entries; values can stand above or below the compound they belong to.

How the values were obtained:
chenopodium album L. = assay: herbicidal activity, soil treatment one day after sowing; format: in vivo
setaria glauca L. = assay: as above; format: in vivo
oryza sativa L. (rice) = assay: activity on agrarian species, soil treatment one day after sowing; format: in vivo
Text: (§1) The infesting species and the agrarian species have been indicated in Table 1 by letters, as follows:
P = oryza sativa L. (rice)
(§2) Method of evaluation of the results (of tests):
(§3) 0 = no activity and no difference with respect to the control;
(§4) 1 slight differences with respect to the control;
(§5) 3 = considerable activity with damages that definitely impair the further development of most of the small plants; an activity degree already useful for practical purposes;
(§6) 4 = maximum of activity with lack of germination or total containment of the small plants in the emerging stage.
(§7) In the case of an intermediate activity between two classes of the scale, both values are recorded with the one which corresponds to the preeminent activity preceding.
(§8) TABLE 2 reports the activity data of other compounds that fall within the class which is the object of this invention.
(§9) TABLE 3 reports data on the herbicidal activity against infesting herbs, while TABLE 4 reports data concerning the activity on useful species of agricultural cultivations. These tables employ the criterion explained previously. The product was spread on the soil one day after sowing, in quantities of 1, 3, 6, 8, 10, 12 and 14 kg/ha.

artemisia vulgaris L. = assay: herbicidal activity, soil treatment one day after sowing; format: in vivo
useful plants = assay: phytotoxic action on useful plants (general statements); format: in vivo, useful gramineae; conditions: in words
Text: (§10) It is understood that all the data given herein shall have no limiting character on the object of this invention.

infesting gramineae = assay: herbicidal action on infesting plants (general statements); format: in vivo; conditions: in words
Text: as §10

[1] = system: triticum vulgare L. (wheat); assay: activity on agrarian species, soil treatment one day after sowing; format: in vivo
Text: as §1
N = triticum vulgare L. (wheat)
as §2, §3, §4, §5, §6, §7, §8, §9

[2] = system: echinocloa crus-galli R.S.; assay: herbicidal activity, soil treatment one day after sowing; format: in vivo
zea mais L. (corn) = assay: activity on agrarian species, soil treatment one day after sowing; format: in vivo
Text: as §1, §2, §3, §4, §5, §6, §7, §8, §9

vicia sativa L. = assay: herbicidal activity, soil treatment one day after sowing; format: in vivo
How it was run: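 Pre-emergence soil treatment one day after sowing; activity scored visually on a […] scale against untreated control, from slight difference (1) to no germination or total containment at emergence (4); intermediate activity recorded as both classes, preeminent value first.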

[3] = system: amaranthus retroflexus L.; assay: as above; format: in vivo
solanum Lycopersicum L. = assay: activity on agrarian species, soil treatment one day after sowing; format: in vivo; conditions: 6 kg/ha
Text: as §1
M = solanum Lycopersicum L.
as §2, §3, §4, §5, §6
In the case of an intermediate activity between two classes of the scale, both values are recorded with the one which corresponds to the preeminent activity preceding. […]

avena sativa (oats) = assay: as above; format: in vivo, Avena sativa L.
Text: as §1, §2, §3, §4, §5, §6, §7, §8, §9

[4] = system: phaseolus vulgaris (bean); assay: as above; format: in vivo, Phaseolus vulgaris L.
Text: as §1
I = phaseolus vulgaris (bean)
as §2, §3, §4, §5, §6, §7, §8, §9

[5] = system: beta vulgaris L. (sugar-beet); assay: as above; format: in vivo; conditions: 6 kg/ha
Text: as §1
H = beta vulgaris L. (sugar-beet)
as §2, §3, §4, §5, §6, §7, §8, §9

pisum sativum L. (pea) = assay: as above; format: in vivo
Text: as §1
L = pisum sativum L. (pea)
as §2, §3, §4, §5, §6, §7, §8
TABLE 3 reports data on the herbicidal activity against infesting herbs, while TABLE 4 reports data concerning the activity on useful species of agricultural cultivations. These tables employ the criterion explained previously. […]

activity on P, 0-4 scale (oryza sativa L. (rice); in vivo): 4
activity on N, 0-4 scale ([1]; in vivo): 4
activity on O, 0-4 scale (zea mais L. (corn); in vivo): 4
SMILES: CCN(CC)C(=O)c1cc(Cl)cc(Cl)c1 [PA291, 3,5-dichloro-N,N-diethyl-benzamide, reference compound]
activity on C, 0-4 scale (chenopodium album L.; 2 kg/ha): 2-3
activity on C, 0-4 scale (chenopodium album L.; 4 kg/ha): 3
activity on C, 0-4 scale (chenopodium album L.; 6 kg/ha): 3
activity on E, 0-4 scale (setaria glauca L.; 2 kg/ha): 2-3
activity on E, 0-4 scale (setaria glauca L.; 4 kg/ha): 3
activity on E, 0-4 scale (setaria glauca L.; 6 kg/ha): 4
activity on B, 0-4 scale (artemisia vulgaris L.; 2 kg/ha): 3
activity on B, 0-4 scale (artemisia vulgaris L.; 4 kg/ha): 3-4
activity on B, 0-4 scale (artemisia vulgaris L.; 6 kg/ha): 4
phytotoxic action on useful plants (useful plants): phytotoxic action of considerable intensity
herbicidal action (infesting gramineae): very active
activity on D, 0-4 scale ([2]; 2 kg/ha): 1-2
activity on D, 0-4 scale ([2]; 4 kg/ha): 2-3
activity on D, 0-4 scale ([2]; 6 kg/ha): 4
activity on F, 0-4 scale (vicia sativa L.; 2 kg/ha): 2-3
activity on F, 0-4 scale (vicia sativa L.; 4 kg/ha): 3
activity on F, 0-4 scale (vicia sativa L.; 6 kg/ha): 3-4
activity on A, 0-4 scale ([3]; 2 kg/ha): 2-3
activity on A, 0-4 scale ([3]; 4 kg/ha): 3
activity on A, 0-4 scale ([3]; 6 kg/ha): 3-4

activity on P, 0-4 scale (oryza sativa L. (rice); in vivo): 4-3
SMILES: CC(C)N(C(=O)c1cc(Cl)cc(Cl)c1Cl)C(C)C [PA302, 2,3,5-trichloro-N,N-di-iso-propyl-benzamide, reference compound]
activity on C, 0-4 scale (chenopodium album L.; 1 kg/ha): 2
activity on C, 0-4 scale (chenopodium album L.; 3 kg/ha): 3
activity on C, 0-4 scale (chenopodium album L.; 6 kg/ha): 3
activity on E, 0-4 scale (setaria glauca L.; 1 kg/ha): 3-4
activity on E, 0-4 scale (setaria glauca L.; 3 kg/ha): 4
activity on E, 0-4 scale (setaria glauca L.; 6 kg/ha): 4
activity on B, 0-4 scale (artemisia vulgaris L.; 1 kg/ha): 1-2
activity on B, 0-4 scale (artemisia vulgaris L.; 3 kg/ha): 2
activity on B, 0-4 scale (artemisia vulgaris L.; 6 kg/ha): 2
phytotoxic action on useful plants (useful plants): phytotoxic action of considerable intensity
herbicidal action (infesting gramineae): very active
activity on D, 0-4 scale ([2]; 3 kg/ha): 4
activity on D, 0-4 scale ([2]; 6 kg/ha): 4
activity on F, 0-4 scale (vicia sativa L.; 1 kg/ha): 0
activity on F, 0-4 scale (vicia sativa L.; 3 kg/ha): 0-1
activity on F, 0-4 scale (vicia sativa L.; 6 kg/ha): 0-1
activity on A, 0-4 scale ([3]; 3 kg/ha): 2
activity on A, 0-4 scale ([3]; 6 kg/ha): 2-3

SMILES: CCC(C)N(C(=O)c1ccc(Cl)c(Br)c1)C(C)CC (centres unmarked) [PA489, 3-bromo,4-chloro-N,N-di-sec.butyl-benzamide]
activity on C, 0-4 scale (chenopodium album L.; 2 kg/ha): 1
activity on C, 0-4 scale (chenopodium album L.; 4 kg/ha): 1-2
activity on C, 0-4 scale (chenopodium album L.; 6 kg/ha): 2
activity on E, 0-4 scale (setaria glauca L.; 2 kg/ha): 3
activity on E, 0-4 scale (setaria glauca L.; 4 kg/ha): 4-3
activity on E, 0-4 scale (setaria glauca L.; 6 kg/ha): 4
activity on P, 0-4 scale (oryza sativa L. (rice); 3 kg/ha): 0
activity on P, 0-4 scale (oryza sativa L. (rice); 6 kg/ha): 0
activity on M, 0-4 scale (solanum Lycopersicum L.): 1
activity on G, 0-4 scale (avena sativa (oats); 3 kg/ha): 0
activity on G, 0-4 scale (avena sativa (oats); 6 kg/ha): 0
activity on I, 0-4 scale ([4]; 3 kg/ha): 0
activity on I, 0-4 scale ([4]; 6 kg/ha): 0
activity on B, 0-4 scale (artemisia vulgaris L.; 2 kg/ha): 0-1
activity on B, 0-4 scale (artemisia vulgaris L.; 4 kg/ha): 1
activity on B, 0-4 scale (artemisia vulgaris L.; 6 kg/ha): 3
activity on N, 0-4 scale ([1]; 3 kg/ha): 0
activity on N, 0-4 scale ([1]; 6 kg/ha): 0
activity on H, 0-4 scale [5]: 1
activity on D, 0-4 scale ([2]; 2 kg/ha): 3-2
activity on D, 0-4 scale ([2]; 4 kg/ha): 3-4
activity on D, 0-4 scale ([2]; 6 kg/ha): 3-4
activity on L, 0-4 scale (pisum sativum L. (pea); 3 kg/ha): 0
activity on L, 0-4 scale (pisum sativum L. (pea); 6 kg/ha): 0
activity on O, 0-4 scale (zea mais L. (corn); 3 kg/ha): 0
activity on O, 0-4 scale (zea mais L. (corn); 6 kg/ha): 0
activity on F, 0-4 scale (vicia sativa L.; 2 kg/ha): 0
activity on F, 0-4 scale (vicia sativa L.; 4 kg/ha): 0
activity on F, 0-4 scale (vicia sativa L.; 6 kg/ha): 0-1
activity on A, 0-4 scale ([3]; 2 kg/ha): 1
activity on A, 0-4 scale ([3]; 4 kg/ha): 1-2
activity on A, 0-4 scale ([3]; 6 kg/ha): 3
